Reference: PubChem BioAssay (NCI)
“And” between values parts separate entries of the source, which are not always exact repeats. Identical values can stand only once.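 Protocol summary: plate cells (96-well), add compound at 5 concentrations, incubate 48 h, interpolate endpoints linearly. At the GI50, growth is halved. The concentration for full growth arrest is given as TGI.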

What was measured:
Assay in all cases: NCI tumour cell line growth inhibition, 48 h
UACC-62 melanoma = test system: UACC-62 melanoma
HOP-92 NSCLC = test system: HOP-92 NSCLC
NCI-H522 lung = test system: NCI-H522 lung
OVCAR-5 ovarian = test system: OVCAR-5 ovarian
LOX IMVI melanoma = test system: LOX IMVI melanoma
COLO 205 colon = test system: COLO 205 colon
OVCAR-8 ovarian = test system: OVCAR-8 ovarian
HOP-62 NSCLC = test system: HOP-62 NSCLC
MALME-3M melanoma = test system: MALME-3M melanoma
CCRF-CEM leukemia = test system: CCRF-CEM leukemia

Row | Structure (SMILES) | TGI (UACC-62 melanoma) | TGI (HOP-92 NSCLC) | TGI (NCI-H522 lung) | TGI (OVCAR-5 ovarian) | TGI (LOX IMVI melanoma) | TGI (COLO 205 colon) | TGI (OVCAR-8 ovarian) | TGI (HOP-62 NSCLC) | TGI (MALME-3M melanoma) | TGI (CCRF-CEM leukemia) | GI50 (UACC-62 melanoma) | GI50 (LOX IMVI melanoma) | GI50 (COLO 205 colon) | GI50 (OVCAR-8 ovarian) | GI50 (HOP-62 NSCLC)
1 | COc1cc2c(/C=C3/C(=O)N(C)c4ccc(O)cc43)c(Cl)[nH]c2cc1C | 13.6 µM | 38.5 µM | 16.6 µM | 21.6 µM | 17.3 µM | 2.37 µM | 15 µM | 3.94 µM |  |  |  |  |  |  | 
2 | COc1cc2c(cc1OC)C(=O)/C(=C/c1cc(C)cc(C)c1)C2 | > 84 µM | > 100 µM | > 46.8 µM | > 86.4 µM | > 96.8 µM | 0.346 µM |  | > 61.2 µM |  |  |  |  |  |  | 
3 | OC1COC2CC(Nc3ccccn3)OC12 (stereo not given) | > 100 µM |  | > 100 µM | > 100 µM | > 100 µM | > 100 µM | > 100 µM | > 100 µM | > 100 µM | > 100 µM |  |  |  |  | 
4 | CC1=C(C)CC2(C=C(C(C)(C)C)C(=O)C(C(C)(C)C)=C2)SC1 | 95.6 µM | 47.7 µM | 16.5 µM | 35.7 µM | 33.1 µM | 32.1 µM |  | 37.9 µM | 33.4 µM | 51 µM |  |  |  |  | 
5 | C[C@]12CC(c3ccccc3O1)C(C(=O)Nc1nc(C34CC5CC(CC(C5)C3)C4)cs1)C(=O)N2 (stereo not given in full) | > 100 µM | > 100 µM |  | > 100 µM | > 100 µM | > 100 µM | > 100 µM | > 100 µM | > 100 µM | > 100 µM |  |  |  |  | 
6 | CC(=O)OC1[C@H](OC(C)=O)C2=C(C)[C@@H](OC(C)=O)C[C@@]2(C(C)(C)O)[C@@H](OC(C)=O)[C@H]2[C@@]1(C)[C@@H](OC(C)=O)CC(OC(C)=O)[C@]21CO1 (stereo not given in full) | > 100 µM |  | > 100 µM | > 100 µM | > 100 µM | > 100 µM | > 100 µM | > 100 µM | > 100 µM | > 100 µM |  |  |  |  | 
7 | CC(=O)OCC1OC(n2c(Br)nc3c2c(=O)n(C)c(=O)n3C)C(OC(C)=O)C1OC(C)=O (stereo not given) | > 100 µM | > 100 µM | > 100 µM | > 100 µM | > 100 µM | > 100 µM | > 100 µM | > 100 µM | > 100 µM |  |  |  |  |  | 
8 | C=C1C(=O)O[C@H]2C[C@@H]1[C@@H](O)[C@H](O)[C@@H](C)CCCC(C)=CCC[C@@]2(C)O | 49.2 µM | 99.5 µM | 33.9 µM | 51.3 µM | 65 µM | 28.2 µM |  | > 100 µM | 32.2 µM | > 100 µM |  |  |  |  | 
9 | O=C(O)c1nc2ccc(C(F)(F)F)cc2nc1Nc1ccc(F)cc1 | 27.9 µM |  | 24.7 µM | 64.3 µM | 53.3 µM | 44.1 µM | 83.8 µM | 34.7 µM | 38.3 µM |  |  |  |  |  | 
10 | NCCN1C(=O)c2ccccc2C1c1ccc(Cl)cc1 (stereo not given) | > 100 µM | > 100 µM |  | > 100 µM | > 100 µM | > 100 µM | > 100 µM | > 100 µM |  | > 100 µM |  |  |  |  | 
11 | CC(C)C1=CC(=O)[C@@](C)(C2[C@H](O)C[C@@]3(C)[C@@H]4CC=C5[C@@H](CC[C@@H](OC6OCC(O)C(O)C6OC6OC(C)C(O)C(O)C6O)C5(C)C)[C@]4(C)C(=O)C[C@]23C)O1 (stereo not given in full) | > 100 µM | > 100 µM | > 100 µM | > 100 µM |  | > 100 µM | > 100 µM | > 100 µM | > 100 µM | > 100 µM |  |  |  |  | 
12 | CC(C)=CC(=O)c1[nH]c2ccccc2c1CC(=O)NCCc1cncn1C | > 100 µM | > 100 µM | 84.6 µM | > 100 µM | > 100 µM | 79.6 µM | > 100 µM |  | > 100 µM | > 100 µM |  |  |  |  | 
13 | O=C(Nc1ccc(S(=O)(=O)/N=c2\ncccn2C(=O)C(C(F)(F)F)C(F)(F)F)cc1)C(C(F)(F)F)C(F)(F)F | > 100 µM |  | > 100 µM | > 100 µM | > 100 µM | > 100 µM | > 100 µM | > 100 µM | > 100 µM | > 100 µM |  |  |  |  | 
14 | CCOC(=O)C1(C#N)CC1 | > 100 µM |  | > 100 µM | > 100 µM | > 100 µM | > 100 µM | > 100 µM | > 100 µM | > 100 µM | > 100 µM |  |  |  |  | 
15 | COc1cc(-c2c3c(cc4c2OCO4)[C@@H](Nc2ccc(-c4ccc(-c5ccc(N[C@@H]6c7cc8c(cc7C(c7cc(OC)c(O)c(OC)c7)[C@H]7C(=O)OC[C@H]67)OCO8)cc5)cc4)cc2)[C@H]2COC(=O)[C@@H]2C3)cc(OC)c1O (stereo not given in full) |  | 29.4 µM |  | 17 µM | > 100 µM | 3.34 µM | 3.77 µM | 8.81 µM | 7.4 µM | > 100 µM |  |  |  |  | 
16 | C[C@@H]1CC(=O)C[C@@H]2CC[C@H]3[C@@H]4CC[C@H](OC(=O)c5cccc6cc7ccccc7nc56)[C@H]4CC[C@@H]3[C@H]21 | 28.4 µM | 48.1 µM | 20.1 µM | 34.9 µM | 39.8 µM | 53.8 µM | 38 µM | 52.3 µM | 22.8 µM |  |  |  |  |  | 
17 | CN(C)c1ccc(/C=C/c2sc3ccccc3[n+]2C)cc1 | 17 µM and 5.87 µM | 5.34 µM and 8.69 µM | 11.1 µM and 7.29 µM | 26.6 µM and 61.5 µM | 6.87 µM and 3.34 µM | 0.377 µM | 1.17 µM and 6.8 µM | 14.9 µM and > 100 µM | 12.1 µM and 6 µM |  | 3.87 µM and 1.48 µM | 2.34 µM and 1.11 µM | 0.185 µM | 0.0955 µM and 0.387 µM | 3.7 µM and 8.53 µM
18 | C/C(N=NS(=O)(=O)c1ccc([N+](=O)[O-])cc1)=C1\C=CC=CN1O | > 100 µM | > 100 µM | > 100 µM | > 100 µM |  |  | > 100 µM | > 100 µM |  | > 100 µM |  |  |  |  | 
19 | C#CC(O)/C=C/CCCCCCC#CC/C=C\CC#CCCCCCCCCC(O)C#C (stereo not given) | 23 µM | 5.05 µM | 0.526 µM | 27 µM | < 0.0261 µM | 7.41 µM | 5.11 µM | 12 µM | 4.41 µM |  |  |  |  |  | 
20 | CCc1c(-c2ccc(OC)cc2)oc(OC)c(C)c1=O | > 100 µM | > 100 µM | > 100 µM | > 100 µM | > 100 µM | > 100 µM | > 100 µM | > 100 µM |  | > 100 µM |  |  |  |  | 
21 | COC(=O)C1(SC)C2CCC3C2CCC31 (stereo not given) |  | > 100 µM | > 100 µM | > 100 µM | > 100 µM | > 100 µM | > 100 µM | > 100 µM | > 100 µM | > 100 µM |  |  |  |  | 
22 | COc1ccc(C2C(=O)c3c(OC)cc(OC)cc3OC2c2cccnc2)cc1 (stereo not given) | > 100 µM |  | > 100 µM | > 100 µM | > 100 µM | > 100 µM | > 100 µM | > 100 µM | > 100 µM | > 100 µM |  |  |  |  | 
